From patent publication US10696615B2, “Prenylated hydroxystilbenes” (The University of Sydney, priority 2011, dated 2020)

What was measured:
786-0 = test: NCI in vitro cancer screen, Renal Cancer; type: cell-based, human; settings: 786-0, Renal Cancer
MALME-3M = test: NCI in vitro cancer screen, Melanoma; type: cell-based, human; settings: MALME-3M, Melanoma
SF-539 = test: NCI in vitro cancer screen, CNS Cancer; type: cell-based; settings: SF-539, CNS Cancer
LOX IMVI = test: NCI in vitro cancer screen, Melanoma; type: cell-based, human; settings: Melanoma
EKVX = test: NCI in vitro cancer screen, Non-Small Cell Lung Cancer; type: cell-based, human; settings: Non-Small Cell Lung Cancer
IGROV1 = test: NCI in vitro cancer screen, Ovarian Cancer; type: cell-based, human; settings: IGROV1, Ovarian Cancer
RPMI-8226 = test: NCI in vitro cancer screen, Leukemia; type: cell-based, human; settings: RPMI-8226, Leukemia
M14 = test: NCI in vitro cancer screen, Melanoma; type: cell-based, human; settings: M14, Melanoma
NCI-H226 = test: NCI in vitro cancer screen, Non-Small Cell Lung Cancer; type: cell-based, human; settings: NCI-H226, Non-Small Cell Lung Cancer
SF-268 = test: NCI in vitro cancer screen, CNS Cancer; type: cell-based, human; settings: SF-268, CNS Cancer
COLO 205 = test: NCI in vitro cancer screen, Colon Cancer; type: cell-based, human; settings: COLO 205, Colon Cancer
HCT-116 = test: NCI in vitro cancer screen, Colon Cancer; type: cell-based, human; settings: HCT-116, Colon Cancer
CAKI-1 = test: NCI in vitro cancer screen, Renal Cancer; type: cell-based, human; settings: CAKI-1, Renal Cancer
OVCAR-4 = test: NCI in vitro cancer screen, Ovarian Cancer; type: cell-based, human; settings: OVCAR-4, Ovarian Cancer
HOP-92 = test: NCI in vitro cancer screen, Non-Small Cell Lung Cancer; type: cell-based, human; settings: HOP-92, Non-Small Cell Lung Cancer
HOP-62 = test: as above; type: cell-based, human; settings: HOP-62, Non-Small Cell Lung Cancer
HL-60 (TB) = test: NCI in vitro cancer screen, Leukemia; type: cell-based, human; settings: HL-60(TB), Leukemia
NCI-H522 = test: NCI in vitro cancer screen, Non-Small Cell Lung Cancer; type: cell-based, human; settings: NCI-H522, Non-Small Cell Lung Cancer
HCT-15 = test: NCI in vitro cancer screen, Colon Cancer; type: cell-based, human; settings: HCT-15, Colon Cancer
ADR-RES (NCI/ADR-RES) = test: NCI in vitro cancer screen, Ovarian Cancer; type: cell-based, human; settings: NCI/ADR-RES, Ovarian Cancer
[1] = tested on: MDA-MB-231 (MDA-MB-231/ATCC); test: NCI in vitro cancer screen, Breast Cancer; type: cell-based, human; settings: MDA-MB-231/ATCC, Breast Cancer
HS 578T = test: NCI in vitro cancer screen, Breast Cancer; type: cell-based, human; settings: Breast Cancer
HCC-2998 = test: NCI in vitro cancer screen, Colon Cancer; type: cell-based, human; settings: HCC-2998, Colon Cancer
SN12C = test: NCI in vitro cancer screen, Renal Cancer; type: cell-based, human; settings: Renal Cancer
SR = test: NCI in vitro cancer screen, Leukemia; type: cell-based, human; settings: Leukemia
UACC-257 = test: NCI in vitro cancer screen, Melanoma; type: cell-based, human; settings: UACC-257, Melanoma
MOLT-4 = test: NCI in vitro cancer screen, Leukemia; type: cell-based, human; settings: MOLT-4, Leukemia
A498 = test: NCI in vitro cancer screen, Renal Cancer; type: cell-based, human; settings: A498, Renal Cancer
[2] = Homo sapiens, read-out: LC50 (the source's name)

## CC(C)=CCOc1cc(O)cc(/C=C/c2ccc(O)c(O)c2)c1CC=C(C)C [USYDS14, (E)-2-(3-methyl-2-buten-1-yl)-3-(3-methyl-2-butenyloxy)-3′,4′,5-trihydroxystilbene]
786-0
  TGI: 11.8 µM
786-0; Homo sapiens
  GI50: 3.44 µM
  LC50 (50% net cell kill): 40 µM
MALME-3M; Homo sapiens
  GI50: 3.14 µM
MALME-3M; [2]
  CC50: 54.8 µM
MALME-3M
  TGI: 21.8 µM
SF-539; Homo sapiens
  GI50: 2.96 µM
SF-539; [2]
  CC50: 37.8 µM
SF-539
  TGI: 10.5 µM
LOX IMVI; Homo sapiens
  GI50: 1.36 µM
LOX IMVI; [2]
  CC50: 8.35 µM
LOX IMVI
  TGI: 3.37 µM
EKVX; Homo sapiens
  GI50: 6.45 µM
EKVX; [2]
  CC50: 51.7 µM
EKVX
  TGI: 21.2 µM
IGROV1; Homo sapiens, IGROV-1
  GI50: 3.65 µM
IGROV1; Homo sapiens, IGROV-1, read-out: LC50 (the source's name)
  CC50: 65.4 µM
IGROV1
  TGI: 13.7 µM
RPMI-8226; Homo sapiens
  GI50: 4.07 µM
RPMI-8226; [2]
  CC50: > 100 µM
RPMI-8226
  TGI: 24.5 µM
M14; Homo sapiens
  GI50: 2.95 µM
M14; [2]
  CC50: 50 µM
M14
  TGI: 13.6 µM
NCI-H226; Homo sapiens
  GI50: 1.72 µM
  LC50 (50% lethal concentration): 7.52 µM
NCI-H226
  TGI: 3.6 µM
SF-268; Homo sapiens
  GI50: 4.65 µM
SF-268; [2]
  CC50: 48.5 µM
SF-268
  TGI: 17.8 µM
COLO 205
  TGI: 28.5 µM
COLO 205; Homo sapiens
  GI50: 14.6 µM
COLO 205; [2]
  CC50: 55.7 µM
HCT-116
  TGI: 16 µM
HCT-116; Homo sapiens
  GI50: 4.2 µM
  LC50 (concentration killing 50% of cells): 46.6 µM
CAKI-1
  TGI: 17.5 µM
CAKI-1; Homo sapiens
  GI50: 3.59 µM
CAKI-1; [2]
  CC50: 45.4 µM
OVCAR-4; Homo sapiens
  GI50: 2.98 µM
OVCAR-4; [2]
  CC50: 38.6 µM
OVCAR-4
  TGI: 13.6 µM
HOP-92
  TGI: 7.58 µM
HOP-92; Homo sapiens
  GI50: 1.49 µM
HOP-92; [2]
  CC50: 32.9 µM
HOP-62
  TGI: 3.77 µM
HOP-62; Homo sapiens
  GI50: 1.43 µM
HOP-62; [2]
  CC50: 9.98 µM
HL-60 (TB)
  TGI: 16.3 µM
HL-60 (TB); Homo sapiens
  GI50: 4.06 µM
HL-60 (TB); [2]
  CC50: > 100 µM
NCI-H522; Homo sapiens
  GI50: 0.75 µM
NCI-H522; [2]
  CC50: 5.85 µM
NCI-H522
  TGI: 2.26 µM
HCT-15
  TGI: 10.4 µM
HCT-15; Homo sapiens
  GI50: 2.06 µM
HCT-15; [2]
  CC50: 43.3 µM
ADR-RES (NCI/ADR-RES); Homo sapiens
  GI50: 0.78 µM
ADR-RES (NCI/ADR-RES); [2]
  CC50: 49.3 µM
ADR-RES (NCI/ADR-RES)
  TGI: 11.4 µM
[1]; Homo sapiens
  GI50: 3.15 µM
[1]; [2]
  CC50: 45.3 µM
[1]
  TGI: 14.3 µM
HS 578T
  TGI: 20.5 µM
HS 578T; Homo sapiens
  GI50: 2.71 µM
HS 578T; [2]
  CC50: > 100 µM
HCC-2998
  TGI: 10.6 µM
HCC-2998; Homo sapiens
  GI50: 2.9 µM
HCC-2998; [2]
  CC50: 40.7 µM
SN12C; Homo sapiens
  GI50: 3.61 µM
SN12C; [2]
  CC50: 42 µM
SN12C
  TGI: 15.1 µM
SR; Homo sapiens
  GI50: 0.67 µM
SR; [2]
  CC50: > 100 µM
SR
  TGI: 24.6 µM
UACC-257; Homo sapiens
  GI50: 10.2 µM
UACC-257; [2]
  CC50: 54 µM
UACC-257
  TGI: 23.5 µM
MOLT-4; Homo sapiens
  GI50: 4.03 µM
MOLT-4; [2]
  CC50: > 100 µM
MOLT-4
  TGI: 21 µM
A498
  TGI: 26.6 µM
A498; Homo sapiens
  GI50: 13 µM
A498; [2]
  CC50: 54.6 µM
